# In patent US4590178A (Ajinomoto Company, Incorporated, priority 1982, dated 1986):
# Tests used:
# [1] = test system: spontaneously hypertensive rats; assay: Antihypertensive activity: systolic blood pressure measured indirectly on conscious SHR after peroral dosing; type: in vivo, rat; settings: for Systolic Blood Pressure, Pretreatment: SHR (male, 13 months, 2 per sample), before 35 mg/kg peroral single dose; for Systolic Blood Pressure, 4 hrs after administration / Δ Blood Pressure: SHR; for Systolic Blood Pressure, 4 hrs after administration: 4 hours after 35 mg/kg peroral single dose; for Δ Blood Pressure: 4 hours after 35 mg/kg peroral single dose versus pretreatment
# Protocol: The antihypertensive activity of part of the amino acid derivatives prepared above, was determined.
# As subject animals 2 SHR were used which had been trained enough and been confirmed to be hypertensive spontaneously hypertensive rats (male, 13 months of age, the body weight of 400 to 440 g) per sample.
# As an instrument for measuring the blood pressure a Programmed Electro-Sphygmomanometer PE-300 (Narco Co., U.S.A.) was used, and the blood pressure was indirectly measured on conscious rats.
# An aqueous solution or suspension of a sample (35 mg/kg) was once force-fed into the stomach by means of a peroral probe.
# An antihypertensive activity of part of the amino acid derivatives prepared above was determined.
# As subject animals there were used 2 SHR which had been trained enough and been confirmed to be hypertensive spontaneously hypertensive rats (male, 13 months of age, the body weight of 400~440 g) per sample.
# As an instrument for measuring the blood pressure there was used Programmed Electro-Sphygmomanometer PE-300 (Narco Co., U.S.A.), and the blood pressure was indirectly measured on conscious rats.
# An antihypertensive activity of the product prepared above was determined.
# [2] = 27.7° C.
compound,measurement,setting,value
Phosphoryl-L-alanyl-L-prolyl-L-proline L-arginine salt [Example 8],"Systolic Blood Pressure, Pretreatment",[1],196 mm Hg
same,"Systolic Blood Pressure, 4 hrs after administration",[1],177 mm Hg
same,Δ Blood Pressure,[1],-19 mm Hg
"C[C@H](NP(=O)([O-])CCc1ccccc1)C(=O)N1CCC[C@H]1C(=O)N1CCC[C@H]1C(=O)[O-].[Na+].[Na+] [Example 28, N-phenethylphosphonyl-L-alanyl-L-prolyl-L-proline 2 sodium salt]","Systolic Blood Pressure, Pretreatment",[1],183 mm Hg
same,"Systolic Blood Pressure, 4 hrs after administration",[1],151 mm Hg
same,Δ Blood Pressure,[1],-32 mm Hg
"COP(=O)(CCc1ccccc1)N[C@@H](CCSC)C(=O)N1CCC[C@H]1C(=O)N1CCC[C@H]1C(=O)O.NC(N)=NCCC[C@H](N)C(=O)O (stereo partly drawn) [Example 41, N--(O--methyl-P--phenethylphosphonyl)-L-methionyl-L-prolyl-L-proline L-arginine salt]","Systolic Blood Pressure, Pretreatment",[1],203 mm Hg
same,"Systolic Blood Pressure, 4 hrs after administration",[1],172 mm Hg
same,Δ Blood Pressure,[1],-31 mm Hg
Dibenzylphosphoryl-L-alanyl-L-prolyl-D-alanine L-arginine salt [Example 14],"Systolic Blood Pressure, Pretreatment",[1],183 mm Hg
same,"Systolic Blood Pressure, 4 hrs after administration",[1],161 mm Hg
same,Δ Blood Pressure,[1],-22 mm Hg
"C[C@H](NP(=O)(OCc1ccccc1)OCc1ccccc1)C(=O)N1CCC[C@H]1C(=O)N1CCC[C@H]1C(=O)O [Example 84, Dibenzylphosphoryl-L-alanyl-L-propyl-L-proline in the crystalline form]","Systolic Blood Pressure, Pretreatment",[1],219 mm Hg
same,"Systolic Blood Pressure, 4 hrs after administration",[1],188 mm Hg
same,Δ Blood Pressure,[1],-31 mm Hg
same,Median lethal dose (LD50),mouse,more than 15 g/kg
same,Median lethal dose (LD50),rat,more than 15 g/kg
same,.rho.Ka,[2],3.92
Dibenzylphosphoryl-L-alanyl-L-prolyl-L-serine L-arginine salt [Example 2],"Systolic Blood Pressure, Pretreatment",[1],202 mm Hg
same,"Systolic Blood Pressure, 4 hrs after administration",[1],180 mm Hg
same,Δ Blood Pressure,[1],-22 mm Hg
N-Phenethylphosphonyl-L-methionyl-L-prolyl-L-proline 2 sodium salt [Example 34],"Systolic Blood Pressure, Pretreatment",[1],183 mm Hg
same,"Systolic Blood Pressure, 4 hrs after administration",[1],154 mm Hg
same,Δ Blood Pressure,[1],-29 mm Hg
"CCOP(=O)(CCc1ccccc1)N[C@@H](CCCCN)C(=O)N1CCC[C@H]1C(=O)N1CCC[C@H]1C(=O)O.NC(N)=NCCC[C@H](N)C(=O)O (stereo partly drawn) [Example 37, N^α -(O-Ethyl-P-phenethylphosphonyl)-L-lysyl-L-prolyl-L-proline L-arginine salt]","Systolic Blood Pressure, Pretreatment",[1],201 mm Hg
same,"Systolic Blood Pressure, 4 hrs after administration",[1],172 mm Hg
same,Δ Blood Pressure,[1],-29 mm Hg
Dibenzylphosphoryl-L-alanyl-L-prolyl-L-proline L-arginine salt [Example 1],"Systolic Blood Pressure, Pretreatment",[1],205 mm Hg
same,"Systolic Blood Pressure, 4 hrs after administration",[1],170 mm Hg
same,Δ Blood Pressure,[1],-35 mm Hg
"CCOP(=O)(CCc1ccccc1)N[C@@H](C)C(=O)N1CCC[C@H]1C(=O)N1CCC[C@H]1C(=O)[O-].[Na+] (stereo partly drawn) [Example 43, N--(O--ethyl-P--phenethylphosphonyl)-L-alanyl-L-prolyl-L-proline sodium salt]","Systolic Blood Pressure, Pretreatment",[1],195 mm Hg
same,"Systolic Blood Pressure, 4 hrs after administration",[1],171 mm Hg
same,Δ Blood Pressure,[1],-24 mm Hg
"O=C(O)[C@@H]1CCCN1C(=O)[C@@H]1CCCN1C(=O)[C@H](Cc1ccccc1)NP(=O)(Cc1ccccc1)Cc1ccccc1 [Example 20, Dibenzylphosphoryl-L-phenylalanyl-L-Prolyl-L-proline]","Systolic Blood Pressure, Pretreatment",[1],184 mm Hg
same,"Systolic Blood Pressure, 4 hrs after administration",[1],169 mm Hg
same,Δ Blood Pressure,[1],-15 mm Hg
Dibenzylphosphoryl-L-prolyl-L-tyrosine L-arginine salt [Example 4],"Systolic Blood Pressure, Pretreatment",[1],207 mm Hg
same,"Systolic Blood Pressure, 4 hrs after administration",[1],195 mm Hg
same,Δ Blood Pressure,[1],-12 mm Hg
"C[C@H](NP(=O)(OCc1ccccc1)OCc1ccccc1)C(=O)N1CCC[C@H]1C(=O)NCC(=O)O.N=C(N)NCCC[C@H](N)C(=O)O [Example 6, Dibenzylphosphory-L-alanyl-L-prolyl-glycine L-arginine salt]","Systolic Blood Pressure, Pretreatment",[1],212 mm Hg
same,"Systolic Blood Pressure, 4 hrs after administration",[1],190 mm Hg
same,Δ Blood Pressure,[1],-22 mm Hg
Dibenzylphosphoryl-glycyl-L-prolyl-L-proline L-arginine salt [Example 19],"Systolic Blood Pressure, Pretreatment",[1],196 mm Hg
same,"Systolic Blood Pressure, 4 hrs after administration",[1],181 mm Hg
same,Δ Blood Pressure,[1],-15 mm Hg
"C[C@H](NP(=O)(CCc1ccccc1)OCc1ccccc1)C(=O)N1CCC[C@H]1C(=O)N1CCC[C@H]1C(=O)[O-].[Na+] (stereo partly drawn) [Example 42, N--(O--benzyl-P--phenethylphosphonyl)-L-alanyl-L-prolyl-L-proline sodium salt]","Systolic Blood Pressure, Pretreatment",[1],194 mm Hg
same,"Systolic Blood Pressure, 4 hrs after administration",[1],180 mm Hg
same,Δ Blood Pressure,[1],-14 mm Hg
Dibenzylphosphoryl-L-alanyl-L-prolyl-L-proline dicyclohexylamine salt [Example 74],"Systolic Blood Pressure, Pretreatment",[1],195 mm Hg
same,"Systolic Blood Pressure, 4 hrs after administration",[1],165 mm Hg
same,Δ Blood Pressure,[1],-30 mm Hg
"C[C@H](NP(=O)(OCc1ccccc1)OCc1ccccc1)C(=O)N1C[C@H](O)C[C@H]1C(=O)N1CCC[C@H]1C(=O)O (relative stereo) [Example 17, Dibenzylphosphoryl-L-alanyl-trans-L-hydroxyprolyl-L-proline]","Systolic Blood Pressure, Pretreatment",[1],182 mm Hg
same,"Systolic Blood Pressure, 4 hrs after administration",[1],163 mm Hg
same,Δ Blood Pressure,[1],-19 mm Hg
Diethylphosphoryl-L-methionyl-L-prolyl-L-proline L-argine salt [Example 44],"Systolic Blood Pressure, Pretreatment",[1],189 mm Hg
same,"Systolic Blood Pressure, 4 hrs after administration",[1],179 mm Hg
same,Δ Blood Pressure,[1],-10 mm Hg
C[C@H](NP(=O)(OCc1ccccc1)OCc1ccccc1)C(=O)N1CCC[C@H]1C(=O)N[C@@H](CCCNC(=N)N)C(=O)O [Example 13],"Systolic Blood Pressure, Pretreatment",[1],181 mm Hg
same,"Systolic Blood Pressure, 4 hrs after administration",[1],162 mm Hg
same,Δ Blood Pressure,[1],-19 mm Hg
Dibenzylphosphoryl-L-alanyl-N-(2-indanyl)-glycyl-L-proline L-arginine salt [Example 31],"Systolic Blood Pressure, Pretreatment",[1],199 mm Hg
same,"Systolic Blood Pressure, 4 hrs after administration",[1],169 mm Hg
same,Δ Blood Pressure,[1],-30 mm Hg
"C[C@H](NP(=O)(OCc1ccccc1)OCc1ccccc1)C(=O)N1CCC[C@H]1C(=O)N1CCC[C@H]1C(=O)[O-].[K+] [Example 32, Dibenzylphosporyl-L-alanyl-L-propyl-L-Proline potassium salt]","Systolic Blood Pressure, Pretreatment",[1],185 mm Hg
same,"Systolic Blood Pressure, 4 hrs after administration",[1],160 mm Hg
same,Δ Blood Pressure,[1],-25 mm Hg
